Reference: patent US10464911B2, “1,3,4-oxadiazole sulfamide derivative compounds as histone deacetylase 6 inhibitor, and the pharmaceutical composition comprising the same” (Chong Kun Dang Pharmaceutical Corp., priority 2015, dated 2019)

Legend:
[1] = target: human recombinant HDAC1 (Homo sapiens (Human), UniProt Q13547); assay: HDAC1 enzyme activity inhibition assay (HDAC Fluorimetric Drug Discovery Kit); type: biochemical; details: human recombinant HDAC1, Fluor de Lys substrate 10 μM, 60 minutes
human recombinant HDAC1, sequence (Q13547 whole entry): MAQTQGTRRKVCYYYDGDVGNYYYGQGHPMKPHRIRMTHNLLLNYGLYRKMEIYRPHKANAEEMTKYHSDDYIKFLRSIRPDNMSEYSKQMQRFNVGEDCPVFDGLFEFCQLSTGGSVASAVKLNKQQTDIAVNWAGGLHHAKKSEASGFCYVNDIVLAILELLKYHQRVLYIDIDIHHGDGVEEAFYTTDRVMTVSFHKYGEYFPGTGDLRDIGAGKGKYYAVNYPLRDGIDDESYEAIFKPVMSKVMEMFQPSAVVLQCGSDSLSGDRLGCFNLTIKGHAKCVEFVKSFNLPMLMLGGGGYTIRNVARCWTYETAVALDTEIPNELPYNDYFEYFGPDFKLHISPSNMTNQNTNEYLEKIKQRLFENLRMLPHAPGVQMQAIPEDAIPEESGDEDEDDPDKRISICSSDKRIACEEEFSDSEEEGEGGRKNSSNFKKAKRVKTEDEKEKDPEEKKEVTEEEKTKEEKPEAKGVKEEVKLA
Description: In order to examine the HDAC6 selectivity of the compounds of formula I of the present invention by HDAC1 and HDAC6 enzymatic activity inhibition assays, an experiment was performed using a conventional substance as a control.
HDAC enzyme activity was measured using a HDAC Fluorimetric Drug Discovery Kit (BML-AK511, 516, Enzo Life Science). For the HDAC1 enzyme activity test, human recombinant HDAC1 (BML-SE456) was used as an enzyme source, and Fluor de Lys®-“SIRT1 (BNL-KI177) was used as a substrate. A 5-fold dilution of the compound was seeded into a 96-well plate, and then 0.3 μg of the enzyme and 10 μM of the substrate were added to each well of the plate and allowed to react at 30 for 60 minutes. Then, Fluor de Lys®-Developer II (BML-KI176) was added thereto and allowed to react for 30 minutes, after which the fluorescence value (Ex 360, Em 460) was measured using a multi-plate reader (Flexstation 3, Molecular Device). The HDAC6 enzyme was tested using human recombinant HDAC6 (382180) (Calbiochem) according to the same protocol as the HDAC1 enzyme activity test method. Based on the resulting values, each IC50 value was calculated using GraphPad Prism4.0 program.

[2] = target: human recombinant HDAC6 (Homo sapiens (Human), UniProt Q9UBN7); assay: HDAC6 enzyme activity inhibition assay (HDAC Fluorimetric Drug Discovery Kit); type: biochemical; details: for HDAC6 selectivity (fold): HDAC6 versus HDAC1; for IC50: human recombinant HDAC6, same protocol as HDAC1 test
human recombinant HDAC6, sequence (Q9UBN7 whole entry): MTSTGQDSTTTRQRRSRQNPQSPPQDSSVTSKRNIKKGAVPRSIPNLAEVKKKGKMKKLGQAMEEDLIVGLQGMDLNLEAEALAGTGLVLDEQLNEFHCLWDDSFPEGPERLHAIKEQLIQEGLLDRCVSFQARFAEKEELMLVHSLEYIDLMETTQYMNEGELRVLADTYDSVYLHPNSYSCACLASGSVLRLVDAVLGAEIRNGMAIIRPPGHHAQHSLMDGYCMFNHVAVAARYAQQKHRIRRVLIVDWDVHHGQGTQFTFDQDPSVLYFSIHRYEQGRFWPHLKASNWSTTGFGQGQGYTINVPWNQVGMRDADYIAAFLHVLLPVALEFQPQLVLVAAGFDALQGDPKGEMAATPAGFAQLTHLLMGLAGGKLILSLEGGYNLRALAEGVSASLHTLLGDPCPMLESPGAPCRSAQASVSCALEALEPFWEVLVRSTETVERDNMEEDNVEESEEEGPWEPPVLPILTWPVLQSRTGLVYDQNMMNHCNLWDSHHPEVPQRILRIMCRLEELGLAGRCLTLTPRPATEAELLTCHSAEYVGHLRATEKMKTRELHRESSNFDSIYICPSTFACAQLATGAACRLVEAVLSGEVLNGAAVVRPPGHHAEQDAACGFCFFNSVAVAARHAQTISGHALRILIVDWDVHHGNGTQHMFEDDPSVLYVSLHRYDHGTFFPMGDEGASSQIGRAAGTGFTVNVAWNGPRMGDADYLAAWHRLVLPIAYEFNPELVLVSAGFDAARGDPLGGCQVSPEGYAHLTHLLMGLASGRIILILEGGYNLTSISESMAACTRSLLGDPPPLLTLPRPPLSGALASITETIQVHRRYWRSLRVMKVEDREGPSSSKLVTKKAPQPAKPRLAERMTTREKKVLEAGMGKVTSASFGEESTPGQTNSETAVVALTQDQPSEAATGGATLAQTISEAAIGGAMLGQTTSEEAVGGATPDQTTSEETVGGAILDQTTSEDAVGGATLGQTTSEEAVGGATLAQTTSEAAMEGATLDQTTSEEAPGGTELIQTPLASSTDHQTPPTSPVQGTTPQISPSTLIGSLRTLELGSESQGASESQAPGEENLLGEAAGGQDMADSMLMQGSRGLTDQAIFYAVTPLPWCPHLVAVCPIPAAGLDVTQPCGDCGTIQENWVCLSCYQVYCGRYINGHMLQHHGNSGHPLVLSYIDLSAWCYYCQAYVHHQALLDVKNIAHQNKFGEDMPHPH
How it was run: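 Recombinant human HDAC1 or HDAC6 (0.3 μg) reacted with 10 μM Fluor de Lys-SIRT1 substrate and 5-fold compound dilutions for 60 min at 30 °C, followed by 30 min developer. Fluorescence read at Ex 360/Em 460; IC50 calculated from the values.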

| Structure (SMILES) | IC50 [1] | HDAC6 selectivity (fold) [2] | IC50 [2] |
| --- | --- | --- | --- |
| O=S(=O)(N1CCN(C2COC2)CC1)N(Cc1ccc(-c2nnc(C(F)F)o2)cc1)c1ccc(F)c(Cl)c1 [Compound 11653, N-(3-chloro-4-fluorophenyl)-N-(4-(5-(difluoromethyl)-1,3,4-oxadiazol-2-yl)benzyl)-4-(oxetan-3-yl)piperazine-1-sulfonamide] | 52.4 µM | 1214 fold | 0.043 µM |
| CN1CCN(S(=O)(=O)N(Cc2ccc(-c3nnc(C(F)F)o3)cc2)c2ccc(F)c(Cl)c2)CC1 [Compound 11654, N-(3-chloro-4-fluorophenyl)-N-(4-(5-(difluoromethyl)-1,3,4-oxadiazol-2-yl)benzyl)-4-methylpiperazine-1-sulfonamide] | 71.5 µM | 1996 fold | 0.036 µM |
| CC(=O)N1[C@H](C)CN(S(=O)(=O)N(Cc2ccc(-c3nnc(C(F)F)o3)cn2)c2ccccc2)C[C@@H]1C [Compound 11659, (3S,5R)-4-acetyl-N-((5-(5-(difluoromethyl)-1,3,4-oxadiazol-2-yl)pyridin-2-yl)methyl)-3,5-dimethyl-N-phenylpiperazine-1-sulfonamide] | 72.4 µM | 2753 fold | 0.026 µM |
| CC(=O)N1[C@H](C)CN(S(=O)(=O)N(Cc2ccc(-c3nnc(C(F)F)o3)cc2)c2cccnc2)C[C@@H]1C [Compound 11660, (3S,5R)-4-acetyl-N-(4-(5-(difluoromethyl)-1,3,4-oxadiazol-2-yl)benzyl)-3,5-dimethyl-N-(pyridin-3-yl)piperazine-1-sulfonamide] | 76.5 µM | 1206 fold | 0.063 µM |
| CCN1[C@H](C)CN(S(=O)(=O)N(Cc2ccc(-c3nnc(C(F)F)o3)cn2)c2ccccc2)C[C@@H]1C [Compound 11661, (3S,5R)—N-((5-(5-(difluoromethyl)-1,3,4-oxadiazol-2-yl)pyridin-2-yl)methyl)-4-ethyl-3,5-dimethyl-N-phenylpiperazine-1-sulfonamide] | 116 µM | 1886 fold | 0.061 µM |
| C[C@@H]1CN(S(=O)(=O)N(Cc2ccc(-c3nnc(C(F)F)o3)cc2)c2cccnc2)C[C@H](C)N1C [Compound 11662, (3S,5R)—N-(4-(5-(difluoromethyl)-1,3,4-oxadiazol-2-yl)benzyl)-3,4,5-trimethyl-N-(pyridin-3-yl)piperazine-1-sulfonamide] | 55.3 µM | 1182 fold | 0.047 µM |
| CN1CCN(CCN(C)S(=O)(=O)N(Cc2ccc(-c3nnc(C(F)F)o3)cc2)c2ccccc2)CC1 [Compound 11702, 2-((4-(((N-methyl-N-(2-(4-methylpiperazin-1-yl)ethyl)sulfamoyl)(phenyl)amino)methyl))phenyl)-5-(difluoromethyl)-1,3,4-oxadiazole] | 50.2 µM | 542 fold | 0.093 µM |
